Literature values, collected in PMC7383509 (Clinical Pharmacology in Drug Development, 2019).

Columns and labels:
[1] = major metabolite of oliceridine, cited from earlier work
[2] = test system: μ receptor; conditions: major metabolites of oliceridine; ref data on file; cited from earlier work

## NCC[C@@]1(c2ccccn2)CCOC2(CCCC2)C1 [TRV0109662]
[1]
  Share of total by AUC: ≥ 10%
[1]; ref data on file
  Share of total drug‐related material: 17%
[2]
  Activity at the μ receptor: inactive
